The species named for data set [1] is Homo sapiens. The data set is described as follows: Ability to inhibit LPS-induced TNF-alpha formation in human whole blood (HWB). It is filed as functional, organism-based.
In data set [2] the target is T1, 3',5'-cyclic-AMP phosphodiesterase 4A (Homo sapiens, UniProt P27815). Nature of the data set: Inhibition of Phosphodiesterase-4A (PDE4).
The target of data set [3] is T1, 3',5'-cyclic-AMP phosphodiesterase 4A. Nature of the data set: In vitro inhibitory activity against Phosphodiesterase 4A (PDE4).
The test system of data set [4] is Cavia porcellus. Nature of the data set: Inhibition of ovalbumin induced bronchoconstriction in conscious guinea pig after ip administration at 0.3 mg/kg (0.5 hr pre-treatment). It is filed as functional. The conditions noted are these: route intraperitoneal.
The nature of data set [5]: Half life period was determined in rat after iv administration at a dose of 5 mg/kg. It is filed as ADME, organism-based. Further details: dose 5 mg/kg, route intravenous. The conditions noted are these: in vivo.
For data set [6], the system named is Ovis aries. Nature of the data set: Inhibition of ascaris-induced bronchoconstriction in conscious sheep at 0.5 mg/kg iv dose late phase. It is filed as functional.
A short description of data set [7]: Oral bioavailability in squirrel monkey at a dose of 10 mg/kg. The conditions noted are these: in vivo. It is filed as ADME, organism-based, Saimiri sciureus.
Data set [8] in a line: Oral bioavailability in rat. The conditions noted are these: in vivo. It is filed as ADME, organism-based.
Data set [9] in a line: Maximal plasma concentration in squirrel monkeys. It is filed as ADME, organism-based.
In data set [10] the test system is Ovis aries. Nature of the data set: Inhibition of ascaris-induced bronchoconstriction in conscious sheep at 0.5 mg/kg iv dose at early phase. Format: functional.
Data set [11] is described as follows: Half life period was determined in squirrel monkey after iv administration at a dose of 5 mg/kg. Format: ADME, organism-based. Set-up: dose 5 mg/kg, route intravenous. The conditions noted are these: in vivo.

T1 sequence (P27815 whole entry): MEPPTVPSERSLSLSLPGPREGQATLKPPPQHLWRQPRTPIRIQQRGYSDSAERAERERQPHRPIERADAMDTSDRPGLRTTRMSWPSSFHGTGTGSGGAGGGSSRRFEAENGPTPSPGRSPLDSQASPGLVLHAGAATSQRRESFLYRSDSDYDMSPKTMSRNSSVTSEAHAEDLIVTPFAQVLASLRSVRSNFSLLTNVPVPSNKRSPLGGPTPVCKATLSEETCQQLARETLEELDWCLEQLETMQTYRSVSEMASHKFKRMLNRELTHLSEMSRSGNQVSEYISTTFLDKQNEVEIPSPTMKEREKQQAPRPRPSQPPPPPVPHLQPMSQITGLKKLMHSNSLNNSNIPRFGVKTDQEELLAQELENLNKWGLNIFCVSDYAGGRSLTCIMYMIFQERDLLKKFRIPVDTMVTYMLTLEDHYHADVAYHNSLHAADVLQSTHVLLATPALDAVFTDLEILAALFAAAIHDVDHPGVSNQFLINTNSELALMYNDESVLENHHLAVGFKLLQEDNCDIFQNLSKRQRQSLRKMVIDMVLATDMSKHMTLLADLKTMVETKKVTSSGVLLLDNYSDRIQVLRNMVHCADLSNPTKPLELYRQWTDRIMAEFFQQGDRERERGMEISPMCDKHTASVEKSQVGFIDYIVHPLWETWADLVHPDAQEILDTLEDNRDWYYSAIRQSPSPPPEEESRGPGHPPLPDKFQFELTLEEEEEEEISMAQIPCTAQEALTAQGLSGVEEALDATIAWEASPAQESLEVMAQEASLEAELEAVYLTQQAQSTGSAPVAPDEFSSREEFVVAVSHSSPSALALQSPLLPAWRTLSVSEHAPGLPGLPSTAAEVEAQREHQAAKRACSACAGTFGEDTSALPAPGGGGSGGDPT

In the case of `CCC(O)(c1ccccc1)c1ccc(C(Cc2cc[n+]([O-])cc2)c2ccc(OC(F)F)c(OC(F)F)c2)cn1` (configuration not stated), the IC50 in data set [1] (Homo sapiens, Blood) turned out to be 160 nM; in data set [2] it was 1 nM.
On to `CC(O)(c1ccccc1)c1ccc(C(Cc2cc[n+]([O-])cc2)c2ccc(OC(F)F)c(OC(F)F)c2)cn1` (single isomer, unassigned; diastereomer 2), for which the IC50 stood at 1 nM in data set [3] and 110 nM in data set [1]. Besides, the Inhibition in data set [4] turned out to be 34%.
As for `[O-][n+]1ccc(CC(c2ccc(C(O)(c3ccccc3)C(F)(F)F)nc2)c2ccc(OC(F)F)c(OC(F)F)c2)cc1` (configuration not stated), the IC50 amounted to 2.4 nM in data set [3] and 460 nM in data set [1] (Homo sapiens, Blood).
The like results for `[O-][n+]1ccc(CC(c2ccc(C(O)(c3ccccc3)c3ccccc3)nc2)c2ccc(OC(F)F)c(OC(F)F)c2)cc1` (configuration not stated) were, in that order, 0.8 nM and 550 nM.
For the molecule `COc1ccc([C@H](Cc2ccncc2)c2ccccc2)cc1OC1CCCC1` [CDP840], the midpoint of inhibition in data set [1] (Homo sapiens, Blood), the IC50, lay at 16000 nM.
Take `O=C(c1ccccc1)c1ccc(C(Cc2cc[n+]([O-])cc2)c2ccc(OC(F)F)c(OC(F)F)c2)cn1` (configuration not stated): the IC50 in data set [1] (Homo sapiens, Blood) is 600 nM; in [2] it was 23 nM.
As for `[O-][n+]1ccc(CC(c2ccc(Cc3ccccc3)nc2)c2ccc(OC(F)F)c(OC(F)F)c2)cc1` (configuration not stated), the IC50 worked out at 3 nM in data set [3] and 770 nM in data set [1] (Homo sapiens, Blood).
For the molecule `CC(O)(c1ccccc1)c1ccc(C(Cc2cc[n+]([O-])cc2)c2ccc(OC(F)F)c(OC(F)F)c2)cn1` (mixture of isomers), the IC50 was 48 nM in data set [3] and 3500 nM in data set [1].
For `CC(O)(c1ccc(C(Cc2cc[n+]([O-])cc2)c2ccc(OC(F)F)c(OC(F)F)c2)cn1)c1nccs1` (configuration not stated), the IC50 in data set [3] worked out at 6 nM; in data set [1] (Homo sapiens, Blood), 490 nM.
The like results for `CC(O)(c1ccc(C(Cc2cc[n+]([O-])cc2)c2ccc(OC(F)F)c(OC(F)F)c2)cn1)C1CCCCC1` (configuration not stated) were, in that order, 1.2 nM and 300 nM.
On to `CC(O)(c1ccccc1)c1ccc(C(Cc2cc[n+]([O-])cc2)c2ccc(OC(F)F)c(OC(F)F)c2)cn1` (single isomer, unassigned; diastereomer 1), for which the figures for the half-life in [5] and in data set [11] were 1.5 h and 2.2 h, respectively. Also, the inhibition in vivo at 0.5 mg/kg in [6] came out at 91%; in [10], 33%. The bioavailability in [7] came to 73%; in data set [8], 57%. The IC50 in data set [3] was determined as 2 nM; in data set [1] it was 160 nM. The same molecule gave a Cmax in data set [9] of 2200 nM. Also, the Inhibition in data set [4] is listed as 62%.
For the molecule `CC(C)(O)c1ccc(C(Cc2cc[n+]([O-])cc2)c2ccc(OC(F)F)c(OC(F)F)c2)cn1` (configuration not stated), the IC50 worked out at 40 nM in data set [3] and 890 nM in data set [1] (Homo sapiens, Blood).
In the case of `CC(C)C(O)(c1ccccc1)c1ccc(C(Cc2cc[n+]([O-])cc2)c2ccc(OC(F)F)c(OC(F)F)c2)cn1` (configuration not stated), the IC50 in data set [3] came out at 0.8 nM; in data set [1] (Homo sapiens, Blood), 370 nM.
With `CCCCC(C)(O)c1ccc(C(Cc2cc[n+]([O-])cc2)c2ccc(OC(F)F)c(OC(F)F)c2)cn1` (configuration not stated), the IC50 in data set [3] is 6 nM; in data set [1] (Homo sapiens, Blood) it was 340 nM.
On to `CC(=O)c1ccc(C(Cc2cc[n+]([O-])cc2)c2ccc(OC(F)F)c(OC(F)F)c2)cn1` (configuration not stated), for which the IC50 in [3] worked out at 102 nM; in data set [1] (Homo sapiens, Blood) it was 2200 nM.
For the molecule `CC(O)(c1ccccc1)c1ccc(C(Cc2cc[n+]([O-])cc2)c2ccc(OC(F)F)c(OC(F)F)c2)cn1` (racemic), the figures for the IC50 in data set [3] and in [1] were 0.6 nM and 350 nM, respectively.
As to `[O-][n+]1ccc(CC(c2ccc(C(O)c3ccccc3)nc2)c2ccc(OC(F)F)c(OC(F)F)c2)cc1` (configuration not stated), the IC50 in data set [1] (Homo sapiens, Blood) is 360 nM; in [2], 6 nM.

As a reminder, the IC50 is the point on the concentration scale where inhibition reaches its midpoint. As usually defined, the Inhibition is how much of the control response was suppressed. What is called half-life is the time needed for the level to fall by half in the phase considered. One may read the inhibition in vivo as the share of the control response that was lost under treatment. As a reminder, the bioavailability is dose-corrected exposure relative to a reference, in per cent. By Cmax is commonly meant the maximum level reached in the sampled fluid or tissue.
